From PubChem BioAssay (NCI)
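Assay format: 96-well plates, 48-hour exposure. Definition used: TGI = concentration required for complete inhibition of growth.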

How the values were obtained:
Experiment in all cases: DTP human tumour cell line panel, 48 h
COLO 205 colon = test system: COLO 205 colon
IGROV1 ovarian = test system: IGROV1 ovarian
MALME-3M melanoma = test system: MALME-3M melanoma
HCT-116 colon = test system: HCT-116 colon
SK-MEL-28 melanoma = test system: SK-MEL-28 melanoma
SK-MEL-5 melanoma = test system: SK-MEL-5 melanoma
RPMI-8226 leukemia = test system: RPMI-8226 leukemia
PC-3 prostate = test system: PC-3 prostate
NCI/ADR-RES ovarian = test system: NCI/ADR-RES ovarian
EKVX NSCLC = test system: EKVX NSCLC
HOP-92 NSCLC = test system: HOP-92 NSCLC
NCI-H226 lung = test system: NCI-H226 lung
BT-549 breast = test system: BT-549 breast
TK-10 renal = test system: TK-10 renal
U251 CNS = test system: U251 CNS
OVCAR-3 ovarian = test system: OVCAR-3 ovarian
SW-620 colon = test system: SW-620 colon
OVCAR-8 ovarian = test system: OVCAR-8 ovarian
CCRF-CEM leukemia = test system: CCRF-CEM leukemia
OVCAR-4 ovarian = test system: OVCAR-4 ovarian
HL-60(TB) leukemia = test system: HL-60(TB) leukemia
MDA-MB-231 breast = test system: MDA-MB-231 breast
NCI-H522 lung = test system: NCI-H522 lung
SF-539 CNS = test system: SF-539 CNS
HS 578T breast = test system: HS 578T breast
SNB-19 CNS = test system: SNB-19 CNS
UO-31 renal = test system: UO-31 renal
HT29 colon = test system: HT29 colon
A498 renal = test system: A498 renal
OVCAR-5 ovarian = test system: OVCAR-5 ovarian
RXF 393 renal = test system: RXF 393 renal
CAKI-1 renal = test system: CAKI-1 renal
HOP-62 NSCLC = test system: HOP-62 NSCLC
A549 NSCLC = test system: A549 NSCLC
HCC-2998 colon = test system: HCC-2998 colon
HCT-15 colon = test system: HCT-15 colon
786-0 renal = test system: 786-0 renal
NCI-H460 lung = test system: NCI-H460 lung
K-562 leukemia = test system: K-562 leukemia
SN12C renal = test system: SN12C renal
LOX IMVI melanoma = test system: LOX IMVI melanoma
SR leukemia = test system: SR leukemia
MCF7 breast = test system: MCF7 breast
NCI-H23 lung = test system: NCI-H23 lung
DU-145 prostate = test system: DU-145 prostate
SF-295 CNS = test system: SF-295 CNS
UACC-257 melanoma = test system: UACC-257 melanoma
MDA-MB-435 = test system: MDA-MB-435
KM12 colon = test system: KM12 colon
ACHN renal = test system: ACHN renal
MDA-N = test system: MDA-N
M14 melanoma = test system: M14 melanoma
SK-OV-3 ovarian = test system: SK-OV-3 ovarian
T-47D breast = test system: T-47D breast
MOLT-4 leukemia = test system: MOLT-4 leukemia
SF-268 CNS = test system: SF-268 CNS
UACC-62 melanoma = test system: UACC-62 melanoma
SNB-75 CNS = test system: SNB-75 CNS
SK-MEL-2 melanoma = test system: SK-MEL-2 melanoma

Structure (SMILES): NC(Cc1ccc(OCc2ccccc2)cn1)C(=O)OCc1ccccc1 (configuration not stated)
- TGI (COLO 205 colon): > 100 µM
- TGI (IGROV1 ovarian): > 100 µM
- TGI (MALME-3M melanoma): > 100 µM
- TGI (HCT-116 colon): > 100 µM
- TGI (SK-MEL-28 melanoma): > 100 µM
- TGI (SK-MEL-5 melanoma): > 100 µM
- TGI (RPMI-8226 leukemia): > 100 µM
- TGI (PC-3 prostate): > 100 µM
- TGI (NCI/ADR-RES ovarian): > 100 µM
- TGI (EKVX NSCLC): > 100 µM
- TGI (HOP-92 NSCLC): > 100 µM
- TGI (NCI-H226 lung): > 100 µM
- TGI (BT-549 breast): > 100 µM
- TGI (TK-10 renal): > 100 µM
- TGI (U251 CNS): > 100 µM
- TGI (OVCAR-3 ovarian): > 100 µM
- TGI (SW-620 colon): > 100 µM
- TGI (OVCAR-8 ovarian): > 100 µM
- TGI (CCRF-CEM leukemia): > 100 µM
- TGI (OVCAR-4 ovarian): > 100 µM
- TGI (HL-60(TB) leukemia): > 100 µM
- TGI (MDA-MB-231 breast): > 100 µM
- TGI (NCI-H522 lung): > 100 µM
- TGI (SF-539 CNS): > 100 µM
- TGI (HS 578T breast): > 100 µM
- TGI (SNB-19 CNS): > 100 µM
- TGI (UO-31 renal): > 100 µM
- TGI (HT29 colon): > 100 µM
- TGI (A498 renal): > 100 µM
- TGI (OVCAR-5 ovarian): > 100 µM
- TGI (RXF 393 renal): > 100 µM
- TGI (CAKI-1 renal): > 100 µM
- TGI (HOP-62 NSCLC): > 100 µM
- TGI (A549 NSCLC): > 100 µM
- TGI (HCC-2998 colon): > 100 µM
- TGI (HCT-15 colon): > 100 µM
- TGI (786-0 renal): > 100 µM
- TGI (NCI-H460 lung): > 100 µM
- TGI (K-562 leukemia): > 100 µM
- TGI (SN12C renal): > 100 µM
- TGI (LOX IMVI melanoma): > 100 µM
- TGI (SR leukemia): > 100 µM
- TGI (MCF7 breast): > 100 µM
- TGI (NCI-H23 lung): > 100 µM
- TGI (DU-145 prostate): > 100 µM
- TGI (SF-295 CNS): > 100 µM
- TGI (UACC-257 melanoma): > 100 µM
- TGI (MDA-MB-435): > 100 µM
- TGI (KM12 colon): > 100 µM
- TGI (ACHN renal): > 100 µM
- TGI (MDA-N): > 100 µM

Structure (SMILES): CCOC(=O)C(NC(=O)CC)(C(F)(F)F)P(=O)(OCC)OCC (configuration not stated)
- TGI (MALME-3M melanoma): > 100 µM
- TGI (HCT-116 colon): > 100 µM
- TGI (SK-MEL-28 melanoma): > 100 µM
- TGI (RPMI-8226 leukemia): > 100 µM
- TGI (M14 melanoma): > 100 µM
- TGI (SK-OV-3 ovarian): > 100 µM
- TGI (EKVX NSCLC): > 100 µM
- TGI (T-47D breast): > 100 µM
- TGI (MOLT-4 leukemia): > 100 µM
- TGI (U251 CNS): > 100 µM
- TGI (CCRF-CEM leukemia): > 100 µM
- TGI (HL-60(TB) leukemia): > 100 µM
- TGI (MDA-MB-231 breast): > 100 µM
- TGI (NCI-H522 lung): > 100 µM
- TGI (SF-539 CNS): > 100 µM
- TGI (UO-31 renal): > 100 µM
- TGI (HT29 colon): > 100 µM
- TGI (A498 renal): > 100 µM
- TGI (SF-268 CNS): > 100 µM
- TGI (HOP-62 NSCLC): > 100 µM
- TGI (HCC-2998 colon): > 100 µM
- TGI (HCT-15 colon): > 100 µM
- TGI (UACC-62 melanoma): > 100 µM
- TGI (SNB-75 CNS): > 100 µM
- TGI (K-562 leukemia): > 100 µM
- TGI (SN12C renal): > 100 µM
- TGI (SR leukemia): > 100 µM
- TGI (MCF7 breast): > 100 µM
- TGI (DU-145 prostate): > 100 µM
- TGI (MDA-MB-435): > 100 µM
- TGI (ACHN renal): > 100 µM
- TGI (MDA-N): > 100 µM

Structure (SMILES): CC(C)(C)C1CCC2c3c([nH]c4ccccc34)C3C(=O)N(c4ccc(C(=O)O)cc4)C(=O)C3C2C1 (configuration not stated)
- TGI (COLO 205 colon): 40.4 µM
- TGI (IGROV1 ovarian): 40.1 µM
- TGI (MALME-3M melanoma): 28.9 µM
- TGI (HCT-116 colon): 29.7 µM
- TGI (SK-MEL-28 melanoma): 30.3 µM
- TGI (SK-MEL-5 melanoma): 25.7 µM
- TGI (RPMI-8226 leukemia): > 100 µM
- TGI (M14 melanoma): 37.3 µM
- TGI (PC-3 prostate): 26.3 µM
- TGI (SK-OV-3 ovarian): 32.1 µM
- TGI (NCI/ADR-RES ovarian): 36 µM
- TGI (EKVX NSCLC): 39.7 µM
- TGI (HOP-92 NSCLC): 25.7 µM
- TGI (NCI-H226 lung): 40.3 µM
- TGI (BT-549 breast): 30.1 µM
- TGI (TK-10 renal): 31.3 µM
- TGI (U251 CNS): 26.2 µM
- TGI (OVCAR-3 ovarian): 25.8 µM
- TGI (SW-620 colon): 26.5 µM
- TGI (OVCAR-8 ovarian): 26.6 µM
- TGI (SK-MEL-2 melanoma): 29.1 µM
- TGI (CCRF-CEM leukemia): 12.5 µM
- TGI (HL-60(TB) leukemia): 15.4 µM
- TGI (MDA-MB-231 breast): 29.2 µM
- TGI (NCI-H522 lung): 41.6 µM
- TGI (SF-539 CNS): 34.8 µM
- TGI (HS 578T breast): 39 µM
- TGI (SNB-19 CNS): 34.6 µM
- TGI (UO-31 renal): 30.4 µM
- TGI (HT29 colon): 28.7 µM
- TGI (A498 renal): 34.6 µM
- TGI (SF-268 CNS): 28.4 µM
- TGI (OVCAR-5 ovarian): 36.5 µM
- TGI (RXF 393 renal): 29.5 µM
- TGI (CAKI-1 renal): 31 µM
- TGI (HOP-62 NSCLC): 15.8 µM
- TGI (A549 NSCLC): 25.8 µM
- TGI (HCC-2998 colon): 29 µM
- TGI (HCT-15 colon): 25 µM
- TGI (UACC-62 melanoma): 30.4 µM
- TGI (786-0 renal): 29.1 µM
- TGI (NCI-H460 lung): 35.4 µM
- TGI (K-562 leukemia): 17.9 µM
- TGI (SN12C renal): 25.6 µM
- TGI (LOX IMVI melanoma): 28.8 µM
- TGI (SR leukemia): > 100 µM
- TGI (MCF7 breast): 26.4 µM
- TGI (NCI-H23 lung): 40.8 µM
- TGI (DU-145 prostate): 34.7 µM
- TGI (SF-295 CNS): 23.4 µM
- TGI (UACC-257 melanoma): 28.3 µM
- TGI (MDA-MB-435): 11.1 µM
- TGI (ACHN renal): 24.5 µM
- TGI (MDA-N): 24.7 µM
